From US9861703B2 (Jinan Platinum Pharmatech Co. Ltd., priority 2013, dated 2018) come the findings set out here.

Data set [1] deals with H22 tumor cells. The following applies: Kunming, mouse, in vivo, 14 days.
Experimental: (§2) The ascites was extracted from H22 tumour bearing mice with well growth, followed by adding sterile PBS to dilute the ascites to a concentration of 8.5×10^7 cells/mL. 100 uL of the cells solution was suck up by a 1 mL sterile injector to inoculate into right oxter of mice. After 3 days, the mice were weighted and randomized to several groups (almost 8 mice per group, and a bit more in control group). These mice were administrated a predetermined dosage by intravenous or oral gavage with two days off when having administrated for 5 days until two cycles one of which had 7 days. The body weight of mouse was recorded at the beginning and ending of every cycle,
(§3) After being administrated for two cycles, the mice were weighted and recorded, then sacrificed by cervical dislocation to get lung, liver and spleen weighted respectively.
(§4) Overall difference was calculated by the function of one-way analysis of variance (One-Way ANOVA) in Origin 7.5 software; and t-test was used for pair-comparison between drug administrated group and blank group, and the inhibitory ratio of drug in each group was calculated based on the following equation: inhibitory ratio (100%)=(mean tumor weight of control group−mean tumor weight of drug administrated group)/mean tumor weight of control group×100.
The test system of data set [2] is H22 tumor cells. Briefly: Activities of compounds in H22 tumor cells bearing Kunming mice models (Example 34). The following applies: for Tumor growth inhibition (%) / Tumor weight: after two cycles.
Experimental: as §2, §3, §4
The subject of data set [3] is liver cancer H22. Briefly: Inhibition assay of oral administration against liver cancer H22 (Example 33). The class given is in vivo, Kunming mice. The following applies: oral gavage, sacrificed after 13 days; for Tumor weight: two cycles (5 days on, 2 off); for inhibitory ratio (%): two cycles. As to the method:
(1) the negative control: PBS; (2) Xeloda group: 100 mg/kg/d; (3) TFU group: 70 mg/kg/d; (4) BC-01 group: 100 mg/kg/d.
[formula] [formula] [formula] 2.2: Inhibition Assay of Intravenous Administration Against Liver Cancer H22

The test system of data set [4] is 7 cell lines (ES-2, K562, PC-3, MCF-7, Hela, H7402, 3-AO). Briefly: MTT proliferation inhibition, all 7 tumor cell lines (summary in words). It counts as cell-based. As to the method:
(§1) Human leukemia cell line K562, clear-cell ovarian carcinoma cell line ES-2, human prostate cancer cell line PC-3, human breast cancer cell line MCF-7, cell line Hela, human liver cancer cell line H7402 and human ovarian cancer cell line 3-AO were transferred into a culture flask and were cultured in a medium at 37° C. in a 5% CO2 and saturation humidity. One bottle of cells in logarithmic growth phase was picked out and was blew and beaten to be uniform with a pipette, then took some cell suspension solution to prepare blood counting plate smear to count cells under inverted microscope, and then adjusted the cell number to be 1×10^5/mL by adding some culture medium. Cells were seeded on a 96-well plate on which also drug tests performed. Blank control group, negative control group, positive control group and drug test group were established on the plate while the surrounding wells of the plate were not used (but filled with sterile PBS), wherein the blank control groups were prepared by addition of culture medium 150 μL per well, the negative control groups were prepared by addition of cell suspension solution 100 μL per well and culture medium 50 μL per well, the positive control groups were prepared by addition of cell suspension solution 100 μL per well and positive control drug solution 50 μL per well, the drug test groups were prepared by addition of cell suspension solution 100 μL per well and test compound solution 50 μL per well, and there were 5 different concentrations of drug in the positive control group and the drug test group respectively: 0.01, 0.1, 1, 10, 100 μmol·L^−1, each concentration was established with 3 parallel wells. After the drug was added, the 96-well plate was incubated for 48 h at 37° C. in a CO2 incubator of 5% CO2 and saturation humidity. Upon completion of the incubation, 20 μL MTT solution (concentration was 5 mg/mL) was added to each well and incubated for an additional 4 h, and after the 96-well plate was centrifuged at 2000 rpm for 30 min, medium of each well was suck out carefully and removed and 100 μL DMSO was added instead, followed by vibrating on a tablet shaker for 15 min to re-dissolve formazan crystals completely. OD value of each well was measured at 570 nm wavelength using an enzyme-linked immunosorbent assay reader to calculate cellular proliferation inhibitory ratio of each drug in different concentrations. And half-inhibitory concentration (IC50) was calculated using statistical software SPSS 16.0, wherein the cellular proliferation inhibitory ratio can be calculated as following equation: […]

The test system of data set [5] is clear-cell ovarian carcinoma cell line ES-2. The experiment in a line: MTT proliferation inhibition, ES-2. The following applies: 48 h. It counts as cell-based. As to the method: as §1
The subject of data set [6] is human leukemia cell line K562. The experiment in a line: MTT proliferation inhibition, K562. The class given is cell-based. Here is the method:
as §1

Data set [7] has as its system human ovarian cancer cell line 3-AO. Briefly: MTT proliferation inhibition, 3-AO. The class given is cell-based. The following applies: 48 h. Here is the method:
as §1

For the next data set, the target named is T1, Aminopeptidase N (Sus scrofa, UniProt P15145).
T1 construct: purchased Sigma
T1 sequence (P15145 1-963): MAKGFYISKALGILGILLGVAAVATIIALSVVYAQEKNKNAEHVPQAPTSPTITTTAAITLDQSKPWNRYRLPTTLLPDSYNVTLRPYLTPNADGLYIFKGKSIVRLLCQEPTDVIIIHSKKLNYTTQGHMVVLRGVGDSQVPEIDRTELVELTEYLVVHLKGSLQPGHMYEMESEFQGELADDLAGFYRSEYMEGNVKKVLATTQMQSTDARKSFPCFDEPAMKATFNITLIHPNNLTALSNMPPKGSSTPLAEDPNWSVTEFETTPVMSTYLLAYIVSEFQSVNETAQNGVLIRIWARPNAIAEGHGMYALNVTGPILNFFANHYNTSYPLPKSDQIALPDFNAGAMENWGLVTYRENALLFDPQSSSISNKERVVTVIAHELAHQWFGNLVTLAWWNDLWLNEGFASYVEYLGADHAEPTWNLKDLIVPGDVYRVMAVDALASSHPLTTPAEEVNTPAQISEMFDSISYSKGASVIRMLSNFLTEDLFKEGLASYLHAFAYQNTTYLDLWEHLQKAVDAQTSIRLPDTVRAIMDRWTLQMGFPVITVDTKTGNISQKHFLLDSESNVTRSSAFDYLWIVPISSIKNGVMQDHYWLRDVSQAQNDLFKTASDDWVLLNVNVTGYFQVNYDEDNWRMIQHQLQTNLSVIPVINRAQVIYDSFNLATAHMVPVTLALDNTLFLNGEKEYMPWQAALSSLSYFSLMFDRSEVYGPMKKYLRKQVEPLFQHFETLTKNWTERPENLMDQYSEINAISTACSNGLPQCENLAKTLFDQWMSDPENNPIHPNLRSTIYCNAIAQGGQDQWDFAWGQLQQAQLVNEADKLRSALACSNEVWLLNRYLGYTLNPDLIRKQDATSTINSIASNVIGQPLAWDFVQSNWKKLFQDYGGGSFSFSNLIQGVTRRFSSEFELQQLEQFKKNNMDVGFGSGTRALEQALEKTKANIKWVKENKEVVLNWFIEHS
Briefly: Inhibition activity against enzyme in vitro (aminopeptidase N, L-Leu-p-nitroanilide substrate). It counts as biochemical. As to the method: Aminopeptidase N and L-Leu-p-nitroanilide as substrate were purchased from Sigma cooperation.
Preparation of Buffer Solution: 12.89 g Na2HPO4.12H2O and 2.18 g NaH2PO4.2H2O were dissolved in a 1000 mL volumetric flask, then the mixture was diluted to 1000 mL with fresh distilled water to obtain 50 mM Phosphate Buffer solution (PBS, pH 7.2), which was kept at room temperature to spare.
Aminopeptidase N was dissolved in the buffer solution to obtain 0.1 IU/mL solution.
The substrate was dissolved in DMSO to obtain a […] solution, which was kept in refrigerator to spare.
The aminopeptidase N solution 10 μL, the substrate solution 5 μL and compound with different concentration 40 μL were added into a 96-well cell plate, and then adjusted to 200 μL with phosphate buffer saline solution (pH 7.2). […] And the substrate solution 5 μL of blank group was adjusted to 200 μL with buffer solution. The mixture was incubated at 37° C. for 0.5 h, and absorbance was then determined at 405 nm wavelength Inhibitory ratio can be calculated as follows: […]
According to concentration of compound and corresponding inhibitory ratio, the IC50 value was calculated by using a fitting curve of Origin 7.5 software.

Another data set relates to cell line Hela. Briefly: MTT proliferation inhibition, Hela. The class given is cell-based. The following applies: 48 h. As to the method:
as §1

The subject of data set [8] is human breast cancer cell line MCF-7. The experiment in a line: MTT proliferation inhibition, MCF-7. It counts as cell-based. As to the method:
as §1

Data set [9] has as its system human prostate cancer cell line PC-3. The experiment in a line: MTT proliferation inhibition, PC-3. The class given is cell-based. The following applies: 48 h. Here is the method:
as §1

Data set [10] deals with human liver cancer cell line H7402. Briefly: MTT proliferation inhibition, H7402. The class given is cell-based. Here is the method: as §1
The subject of data set [11] is liver cancer H22. Briefly: Inhibition assay of intravenous administration against liver cancer H22 (Example 33). As to the method:
Extracted the ascites from H22 ascites tumour bearing mice, washed the ascites with sterile PBS for three times and then resuspended the cells with sterile PBS (cells counts: 3.75×10^7 cells/mL), inoculated it into right oxter of Kunming mice 100 uL per mouse.
The H22 tumor-bearing mice were randomized to 4 groups (7 mice per group) after being weighted. […] The size of tumor was measured by using a vernier calliper and weight of mouse by using an electronic balance at the beginning and ending of every cycle, then calculated their mean value. The mice were sacrificed after 13 days and the tumors were taken out and weighted. Tumor volume and inhibitory ratio were calculated as the following equation (L and W referred to length and width of tumor respectively): […]

Setting [12] is: oral gavage, 108 mg/kg/d (0.3 mmol/kg/d).
Where [13] appears, read: mouse, in vivo, iv, 20 mg/kg/day.
[14] abbreviates: tail intravenous injection, 20 mg/kg/d, sacrificed after 13 days.
Where [15] appears, read: intravenous injection, 20 mg/kg/d (0.15 mmol/kg/d).

Like-named read-outs stand apart in the source and are kept apart here.

With `CCCCCOC(=O)Nc1nc(=O)n([C@@H]2O[C@H](C)[C@@H](O)[C@H]2O)cc1F` [Xeloda, capecitabine, reference compound], in the data set on H22 tumor cells [1] (po, 108 mg/kg/day), the “Number of mice alive” value is on record as 7. In addition, in the data set on H22 tumor cells [2] (setting [12]), the “Tumor growth inhibition (%)” value is 40.95%, the “Tumor weight” value is 0.35 ± 0.09 g, the “Body weight(g) Beginning” value came to 33.00 ± 1.81 g and the “Body weight(g) Ending” value was 31.42 ± 3.56 g. In the data set with liver cancer H22 [3] (100 mg/kg/d), the Tumor weight came to 0.6 g and the “inhibitory ratio (%)” value was found to be 24.53%.

As to “(S)-2-(4-(6-(5-(2-chloro-6-methylphenyl)-2-thiazolylcarbonyl amino)-2-methyl-4-pyrimidinyl)-1-piperazinyl)ethyl-2-((2S,3R)-3-amino-2-hydroxy-4-phenylbutyryl)-4-methylpentanoate hydrochloride [Compound 32]”, the “anti-proliferation effect against all the tumor cells” value in data set [4] is “obvious anti-proliferation effect”. The “proliferation inhibition activity compared with 5-FU” value in [4] is “much more potent than 5-FU”. The half-maximal effective concentration (EC50) (in general, the midpoint of the concentration-response curve) in [5] worked out at 6.45 µM; in data set [6] (48 h), 6.33 µM; in data set [7], 4.89 µM; in the data set on cell line Hela, 3.23 µM; in [8] (48 h) it was 3.65 µM; in data set [9], 14.1 µM. For the same molecule, the EC50 in [10] (48 h) came out at 6.75 µM. The “inhibitory activity against aminopeptidase N compared with positive control ubenimex” value at Aminopeptidase N was “comparable activity with ubenimex”. The IC50 – broadly, the concentration that inhibits the measured activity by half – on Aminopeptidase N (37° C., 0.5 h, absorbance 405 nm, PBS pH 7.2, read-out: IC50(μM) APN) came to 7.88 µM.

Take `O=c1[nH]c(=O)n(C2CCCO2)cc1F` (stereo not drawn) [TFU]: in the data set on liver cancer H22 [3] (70 mg/kg/d), the Tumor weight is 0.68 g and the “inhibitory ratio (%)” value is listed as 13.38%.

Regarding `Oc1ncc(F)c(O)n1` [Compound 5-FU, 2,4-dihydroxy-5-fluoropyrimidine, reference compound], the “Number of mice alive” value with liver cancer H22 [11] (Kunming, mouse, in vivo, iv, 20 mg/kg/day, 13 days) is recorded as 7; in the data set with H22 tumor cells [1] (iv, 20 mg/kg/day), 4. Also, the “Body weight(g) Beginning” value turned out to be 31.37 ± 4.05 g with liver cancer H22 [11] (setting [13]) and 26.89 ± 2.06 g in the data set on H22 tumor cells [2] (setting [15]). Moreover, the “Body weight(g) Ending” value in the data set on liver cancer H22 [11] (setting [13]) is 31.92 ± 4.98 g; in the data set on H22 tumor cells [2] (setting [15]), 25.51 ± 4.50 g. Further, the “Tumor weight” value turned out to be 0.84 ± 0.19 g in the data set with liver cancer H22 [11] (setting [14]) and 0.54 ± 0.06 g in the data set with H22 tumor cells [2] (setting [15]). Also, the “inhibitory ratio (%)” value in the data set with liver cancer H22 [11] (setting [14]) amounted to 38.83%. Moreover, the EC50 in data set [6] (Homo sapiens, K562, 48 h) was 16 µM; in data set [7] (Homo sapiens), 60.8 µM; in the data set with cell line Hela (Homo sapiens), 133 µM; in [8] (Homo sapiens, MCF7, 48 h), 76.9 µM; in data set [9] (Homo sapiens), 15.7 µM; in [10] (Homo sapiens, H7402, 48 h) it was 385 µM. Moreover, the “Tumor growth inhibition (%)” value in the data set with H22 tumor cells [2] (setting [15]) was determined as 10.41%.
